Data on three compounds can be found in ChEMBL document CHEMBL1146153, “A metabolically stable tight-binding transition-state inhibitor of glyoxalase-I” (Bioorg Med Chem Lett, 2006).

The nature of series [1]: Stability against equine kidney gamma-glutamyltranspeptidase mediated breakdown at pH 8.4 after 15 mins. Type of series: ADME, tissue-based. The conditions noted are these: pH 8.4, 0.25 h.
The target in series [2] is T1, Glyoxalase I (Saccharomyces cerevisiae S288c, UniProt P50107).
T1 sequence (P50107 whole entry): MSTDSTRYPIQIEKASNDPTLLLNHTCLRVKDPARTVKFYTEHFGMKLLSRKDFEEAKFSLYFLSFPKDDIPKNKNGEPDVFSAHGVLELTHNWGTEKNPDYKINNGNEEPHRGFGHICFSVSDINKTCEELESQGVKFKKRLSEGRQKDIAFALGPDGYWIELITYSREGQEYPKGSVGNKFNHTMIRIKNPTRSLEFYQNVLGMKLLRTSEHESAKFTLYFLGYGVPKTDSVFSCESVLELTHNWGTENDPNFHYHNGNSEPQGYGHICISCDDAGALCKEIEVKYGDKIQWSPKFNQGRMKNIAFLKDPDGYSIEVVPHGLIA
Put plainly: Inhibition of yeast glyoxalase1.

Series [3] is described as follows: Stability against equine kidney gamma-glutamyltranspeptidase mediated breakdown at pH 8.4 after 15 hrs. Type of series: ADME. The conditions noted are these: pH 8.4, 15 h.

With `N[C@@H](CCC(=O)N[C@@H](CSC(=O)N(O)c1ccc(Br)cc1)C(=O)NCC(=O)O)C(=O)O`, the Activity result in series [1] is “Not Active”.
With `N[C@@H](CCC(=O)N[C@@H](CSCc1ccc(Br)cc1)C(=O)NCC(=O)O)C(=O)O`, the Activity result in series [1] is given as “Not Active”.
For `N[C@@H](CNC(=O)N[C@@H](CSC(=O)N(O)c1ccc(Br)cc1)C(=O)NCC(=O)O)C(=O)O`, the inhibition constant (Ki) in series [2] was 2190 nM. Besides, the Stability result in series [3] is “Stable”.

In general, Ki refers to a dissociation constant, usually derived from enzyme kinetics or from competition with a known ligand.
